Source: ChEMBL document CHEMBL3286303, “Synthesis and in vitro antiproliferative evaluation of novel N-alkylated 6-isobutyl- and propyl pyrimidine derivatives” (Bioorg Med Chem Lett, 2014)
Activity calls are given as the source filed them. The calls are words filed in the database; no cut-off is given here.

What was measured:
SW-620 [1] = test: Cell cycle arrest in human SW620 cells as assessed as accumulation at G2/M phase at 0.1 uM after 48 hrs by propidium iodide staining-based flow cytometric analysis relative to control; type: functional
MCF7 [2] = test: Cell cycle arrest in human MCF7 cells as assessed as accumulation at G2/M phase at 1 uM after 48 hrs by propidium iodide staining-based flow cytometric analysis relative to control; type: functional
K562 [3] = test: Cell cycle arrest in human K562 cells as assessed as accumulation at S phase at 0.1 uM after 48 hrs by propidium iodide staining-based flow cytometric analysis relative to control; type: functional
SW-620 [4] = test: Cell cycle arrest in human SW620 cells as assessed as accumulation at G1 phase at 0.1 uM after 48 hrs by propidium iodide staining-based flow cytometric analysis relative to control; type: functional
MCF7 [5] = test: Antiadhesive activity against human MCF7 cells at 5 uM after 2 to 24 hrs by crystal-violet staining-based microscopic analysis; type: functional, cell-based
MCF7 [6] = test: Cell cycle arrest in human MCF7 cells as assessed as accumulation at G2/M phase at 1 uM after 24 hrs by propidium iodide staining-based flow cytometric analysis relative to control; type: functional
SW-620 [7] = test: Antiadhesive activity against human SW620 cells at 5 uM after 2 to 24 hrs by crystal-violet staining-based microscopic analysis; type: functional, cell-based
HepG2 = test: Antiproliferative activity against human HepG2 cells after 72 hrs by MTT assay; type: functional, cell-based
HeLa [8] = test: Antiproliferative activity against human HeLa cells after 72 hrs by MTT assay; type: functional, cell-based
SW-620 [9] = test: Cell cycle arrest in human SW620 cells as assessed as accumulation at S phase at 1 uM after 48 hrs by propidium iodide staining-based flow cytometric analysis relative to control; type: functional
MCF7 [10] = test: Cell cycle arrest in human MCF7 cells as assessed as accumulation at sub-G1 phase at 0.1 uM after 24 hrs by propidium iodide staining-based flow cytometric analysis relative to control; type: functional
MCF7 [11] = test: Cell cycle arrest in human MCF7 cells as assessed as accumulation at G1 phase at 1 uM after 48 hrs by propidium iodide staining-based flow cytometric analysis relative to control; type: functional
SW-620 [12] = test: Cell cycle arrest in human SW620 cells as assessed as accumulation at sub-G1 phase at 1 uM after 48 hrs by propidium iodide staining-based flow cytometric analysis relative to control; type: functional
K562 [13] = test: Cell cycle arrest in human K562 cells as assessed as accumulation at S phase at 0.1 uM after 24 hrs by propidium iodide staining-based flow cytometric analysis relative to control; type: functional
K562 [14] = test: Cell cycle arrest in human K562 cells as assessed as accumulation at G2/M phase at 1 uM after 24 hrs by propidium iodide staining-based flow cytometric analysis relative to control; type: functional
WI-38 [15] = test: Cell cycle arrest in human WI38 cells as assessed as accumulation at G2/M phase at 0.1 uM after 24 hrs by propidium iodide staining-based flow cytometric analysis relative to control; conditions: wi-38, 24 h
MCF7 [16] = test: Cell cycle arrest in human MCF7 cells as assessed as accumulation at S phase at 0.1 uM after 48 hrs by propidium iodide staining-based flow cytometric analysis relative to control; type: functional
MCF7 [17] = test: Cell cycle arrest in human MCF7 cells as assessed as accumulation at S phase at 0.1 uM after 24 hrs by propidium iodide staining-based flow cytometric analysis relative to control; type: functional
SW-620 [18] = test: Cell cycle arrest in human SW620 cells as assessed as accumulation at S phase at 0.1 uM after 48 hrs by propidium iodide staining-based flow cytometric analysis relative to control; type: functional
WI-38 [19] = test: Cell cycle arrest in human WI38 cells as assessed as accumulation at sub-G1 phase at 0.1 uM after 24 hrs by propidium iodide staining-based flow cytometric analysis relative to control; conditions: wi-38, 24 h
K562 [20] = test: Cell cycle arrest in human K562 cells as assessed as accumulation at sub-G1 phase at 0.1 uM after 24 hrs by propidium iodide staining-based flow cytometric analysis relative to control; type: functional
WI-38 [21] = test: Cell cycle arrest in human WI38 cells as assessed as accumulation at G2/M phase at 1 uM after 48 hrs by propidium iodide staining-based flow cytometric analysis relative to control; conditions: wi-38, 48 h
WI-38 [22] = test: Cell cycle arrest in human WI38 cells as assessed as accumulation at S phase at 0.1 uM after 48 hrs by propidium iodide staining-based flow cytometric analysis relative to control; conditions: wi-38, 48 h
BJ = test: Antiadhesive activity against human BJ cells at 5 uM after 2 to 24 hrs by crystal-violet staining-based microscopic analysis; type: ADME, cell-based
K562 [23] = test: Cell cycle arrest in human K562 cells as assessed as accumulation at G1 phase at 0.1 uM after 24 hrs by propidium iodide staining-based flow cytometric analysis relative to control; type: functional
WI-38 [24] = test: Cell cycle arrest in human WI38 cells as assessed as accumulation at sub-G1 phase at 1 uM after 24 hrs by propidium iodide staining-based flow cytometric analysis relative to control; conditions: wi-38, 24 h
MCR = test: Antiproliferative activity against human MCR cells after 72 hrs by MTT assay; type: cell-based; conditions: human, mcr
K562 [25] = test: Cell cycle arrest in human K562 cells as assessed as accumulation at G2/M phase at 0.5 uM after 24 hrs by propidium iodide staining-based flow cytometric analysis relative to control; type: functional
SW-620 [26] = test: Cell cycle arrest in human SW620 cells as assessed as accumulation at sub-G1 phase at 0.1 uM after 48 hrs by propidium iodide staining-based flow cytometric analysis relative to control; type: functional
SW-620 [27] = test: Cell cycle arrest in human SW620 cells as assessed as accumulation at S phase at 0.1 uM after 24 hrs by propidium iodide staining-based flow cytometric analysis relative to control; type: functional
MCF7 [28] = test: Cell cycle arrest in human MCF7 cells as assessed as accumulation at sub-G1 phase at 0.1 uM after 48 hrs by propidium iodide staining-based flow cytometric analysis relative to control; type: functional
WI-38 [29] = test: Cell cycle arrest in human WI38 cells as assessed as accumulation at G2/M phase at 0.1 uM after 48 hrs by propidium iodide staining-based flow cytometric analysis relative to control; conditions: wi-38, 48 h
MCF7 [30] = test: Cell cycle arrest in human MCF7 cells as assessed as accumulation at sub-G1 phase at 1 uM after 24 hrs by propidium iodide staining-based flow cytometric analysis relative to control; type: functional
MCF7 [31] = test: Cell cycle arrest in human MCF7 cells as assessed as accumulation at S phase at 1 uM after 48 hrs by propidium iodide staining-based flow cytometric analysis relative to control; type: functional
HeLa [32] = test: Antiadhesive activity against human HeLa cells at 5 uM after 2 to 24 hrs by crystal-violet staining-based microscopic analysis; type: functional, cell-based
SW-620 [33] = test: Antiproliferative activity against human SW620 cells after 72 hrs by MTT assay; type: functional, cell-based
MCF7 [34] = test: Cell cycle arrest in human MCF7 cells as assessed as accumulation at G1 phase at 0.1 uM after 48 hrs by propidium iodide staining-based flow cytometric analysis relative to control; type: functional
WI-38 [35] = test: Cell cycle arrest in human WI38 cells as assessed as accumulation at G1 phase at 0.1 uM after 48 hrs by propidium iodide staining-based flow cytometric analysis relative to control; conditions: wi-38, 48 h

**Q.** How did the Activity (SW-620 [1]) turn out when `COCn1c(CC(COCc2ccccc2)COCc2ccccc2)c(C)c(=O)n(COC)c1=O` was run?
**A.** Its Activity is 15.5%.

**Q.** And the Activity (MCF7 [2])?
**A.** Its Activity is 3.8%.

**Q.** What about the Activity (K562 [3]) of the same compound?
**A.** The Activity was 24.1%.

**Q.** And the Activity (SW-620 [4])?
**A.** Its Activity is 49.7%.

**Q.** What about the Activity (MCF7 [5]) of the same compound?
**A.** The Activity was “Active”.

**Q.** What about the Activity (MCF7 [6]) of the same compound?
**A.** The Activity was 8.7%.

**Q.** And the Activity (SW-620 [7])?
**A.** The Activity was “Active”.

**Q.** What about the Activity (HepG2) of the same compound?
**A.** Its Activity is “Dose-dependent effect”.

**Q.** What about the Activity (HeLa [8]) of the same compound?
**A.** Its Activity is “Dose-dependent effect”.

**Q.** And the IC50 (HeLa [8])?
**A.** Its IC50 is 300 nM.

**Q.** What about the Activity (SW-620 [9]) of the same compound?
**A.** The Activity was 22%.

**Q.** What about the Activity (MCF7 [10]) of the same compound?
**A.** The Activity was 55.5%.

**Q.** What about the Activity (MCF7 [11]) of the same compound?
**A.** Its Activity is 11.5%.

**Q.** And the Activity (SW-620 [12])?
**A.** Its Activity is 6.7%.

**Q.** And the Activity (K562 [13])?
**A.** The Activity was 28.6%.

**Q.** And the Activity (K562 [14])?
**A.** The Activity was 18.4%.

**Q.** What about the Activity (WI-38 [15]) of the same compound?
**A.** Its Activity is 6.9%.

**Q.** What about the Activity (MCF7 [16]) of the same compound?
**A.** The Activity was 11.9%.

**Q.** What about the Activity (MCF7 [17]) of the same compound?
**A.** Its Activity is 9.7%.

**Q.** What about the Activity (SW-620 [18]) of the same compound?
**A.** Its Activity is 25.6%.

**Q.** What about the Activity (WI-38 [19]) of the same compound?
**A.** Its Activity is 21.9%.

**Q.** What about the Activity (K562 [20]) of the same compound?
**A.** The Activity was 2.2%.

**Q.** And the Activity (WI-38 [21])?
**A.** The Activity was 3.5%.

**Q.** And the Activity (WI-38 [22])?
**A.** The Activity was 6.8%.

**Q.** What about the Activity (BJ) of the same compound?
**A.** The Activity was “Toxic”.

**Q.** And the Activity (K562 [23])?
**A.** The Activity was 48.4%.

**Q.** And the Activity (WI-38 [24])?
**A.** Its Activity is 21%.

**Q.** What about the Activity (MCR) of the same compound?
**A.** Its Activity is “Dose-dependent effect”.

**Q.** And the Activity (K562 [25])?
**A.** The Activity was 4.8%.

**Q.** And the Activity (SW-620 [26])?
**A.** The Activity was 6.8%.

**Q.** And the Activity (SW-620 [27])?
**A.** Its Activity is 19.6%.

**Q.** What about the Activity (MCF7 [28]) of the same compound?
**A.** The Activity was 50.5%.

**Q.** What about the Activity (WI-38 [29]) of the same compound?
**A.** Its Activity is 5.7%.

**Q.** What about the Activity (MCF7 [30]) of the same compound?
**A.** The Activity was 67.1%.

**Q.** And the Activity (MCF7 [31])?
**A.** The Activity was 4.9%.

**Q.** What about the Activity (HeLa [32]) of the same compound?
**A.** The Activity was “Active”.

**Q.** And the Activity (SW-620 [33])?
**A.** The Activity was “Dose-dependent effect”.

**Q.** What about the IC50 (SW-620 [33]; SW-620, 72 h) of the same compound?
**A.** The IC50 was 500 nM.

**Q.** And the Activity (MCF7 [34])?
**A.** Its Activity is 23.8%.

**Q.** What about the Activity (WI-38 [35]) of the same compound?
**A.** Its Activity is 48.5%.
